# System: rice seedlings
# Experiment: Rice yield test
# Type: in vivo
# Conditions: for Average yield: average of nine bunches
# Experimental: A predetermined amount of chemicals was weighed and embedded into soil together with roots of rice seedlings when the seedlings are planted in a paddy field in early May. […] Nine bunches were planted per one test field. After that, usual wet-rice culture was carried out until harvesting in early October. The rice crop was dried and weighed to determine the yield. Good unhusked rice obtained by wind selection was used as the test sample.
structure (smiles),measurement,setting,value
O=P([O-])(O)O.O=P([O-])(O)O.[Ca+2] [Calcium dihydrogen phosphate],Average yield,"treated amount 1 g per 1 m^2, good unhusked rice",196 g
same,Average yield (%),"treated amount 1 g per 1 m^2, untreated = 100",(90) %
same,Average yield,"treated amount 10 g per 1 m^2, good unhusked rice",230 g
same,Average yield (%),"treated amount 10 g per 1 m^2, untreated = 100",(105) %

# From patent US20080271368A1, “METHOD OF PROMOTING PLANT GROWTH AND IMPROVING PLANT QUALITY AND GROWTH-PROMOTING AGENT AND QUALITY-IMPROVING AGENT TO BE USED IN THE METHOD” (priority 2006, published 2008)
